Data: patent US5523460A, “4-fluorobiphenyl derivatives” (Fujirebio Inc., priority 1993, dated 1996)
Where two headings read alike, the source gives them in different places.

How the values were obtained:
HMG-CoA Reductase = molecular target: T1, HMG-CoA Reductase (Rattus norvegicus, UniProt P51639); assay: biochemical; conditions: method of J. Biol. Chem. Vol. 234, page 2835 (1959); read-out: HMG-CoA Reductase Inhibitory Activity IC50
T1 sequence (P51639 1-887): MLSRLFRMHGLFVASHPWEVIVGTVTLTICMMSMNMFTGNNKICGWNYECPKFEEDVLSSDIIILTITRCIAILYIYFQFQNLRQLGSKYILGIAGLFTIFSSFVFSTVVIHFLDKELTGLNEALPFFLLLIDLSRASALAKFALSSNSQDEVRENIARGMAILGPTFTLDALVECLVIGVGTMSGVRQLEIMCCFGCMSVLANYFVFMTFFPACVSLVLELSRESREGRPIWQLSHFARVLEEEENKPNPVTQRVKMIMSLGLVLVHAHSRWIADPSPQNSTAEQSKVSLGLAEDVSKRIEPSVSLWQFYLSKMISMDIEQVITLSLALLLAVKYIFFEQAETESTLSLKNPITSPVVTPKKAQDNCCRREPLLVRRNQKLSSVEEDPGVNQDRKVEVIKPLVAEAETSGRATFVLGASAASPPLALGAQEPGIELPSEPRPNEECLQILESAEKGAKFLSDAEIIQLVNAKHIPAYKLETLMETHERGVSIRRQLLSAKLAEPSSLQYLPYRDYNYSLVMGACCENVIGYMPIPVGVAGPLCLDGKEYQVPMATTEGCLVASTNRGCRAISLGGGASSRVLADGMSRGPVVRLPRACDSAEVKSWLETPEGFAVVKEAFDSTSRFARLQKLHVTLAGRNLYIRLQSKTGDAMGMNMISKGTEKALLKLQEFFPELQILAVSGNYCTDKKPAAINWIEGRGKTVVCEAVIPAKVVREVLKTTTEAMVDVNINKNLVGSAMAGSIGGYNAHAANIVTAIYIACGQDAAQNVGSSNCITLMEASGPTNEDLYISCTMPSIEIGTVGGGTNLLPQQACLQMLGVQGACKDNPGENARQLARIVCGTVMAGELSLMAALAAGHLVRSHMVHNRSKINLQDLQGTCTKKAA
Method: Test 1Determination of Inhibitory Activity on HMG-CoA Reductase
The inhibitory effect on HMG-CoA Reductase of each of representative examples of the 4-fluorobiphenyl derivatives prepared in the above-discussed examples was determined in accordance with the method described in Journal of Biological Chemistry (J. Biol. Chem.) Vol. 234, page 2835 (1959), and IC50 values were obtained.

biosynthesis of sterol = assay: Determination of Inhibition of Sterol Synthesis (liver, after oral administration to rats); type: in vivo, SD rats; conditions: Rattus norvegicus, 2 h, read-out: Inhibition of Sterol Synthesis
Method: Test 2 Determination of Inhibition of Sterol Synthesis
Representative compounds (0.3 mg/5ml/kg) suspended in a 5% arabic gum solution were orally given to SD rats weighing 150 to 200 g. One hour later, ^14 C-acetic acid (100 μCi/kg) was intraperitoneally injected, and furthermore one hour later, liver was removed to determine the inhibitory activity of each of the compounds on the biosynthesis of sterol in accordance with the method described in European Journal of Biochemistry (Eur. J. Biochem.) Vol.77, page 31 (1977).

SMILES | IC50 (HMG-CoA Reductase) | inhibition in vivo at 0.3 mg/kg (biosynthesis of sterol; po) | inhibition in vivo at 0.3 mg/kg (biosynthesis of sterol; 0.3 mg/5ml/kg oral in 5% arabic gum, SD rats, 14C-acetic acid (100 μCi/kg) i.p. 1 h later, liver removed 1 h after that)
COCCOCCOc1cc(C(C)C)c(/C=C/C(O)CC(O)CC(=O)O)c(-c2ccc(F)cc2)c1OC (centres unmarked) | 0.0264 µM | 62% | –
COCCOc1cc(C(C)C)c(/C=C/C(O)CC(O)CC(=O)O)c(-c2ccc(F)cc2)c1OC (centres unmarked) | 0.0161 µM | 71% | –
CCC(C)(C)C(=O)O[C@H]1C[C@@H](C)C=C2C=C[C@H](C)[C@H](CC[C@@H]3C[C@@H](O)CC(=O)O3)[C@H]21 [Simvastatin, reference compound] | – | – | 24%
COCCOc1c(OC)cc(C(C)C)c(/C=C/C(O)CC(O)CC(=O)O)c1-c1ccc(F)cc1 (centres unmarked) | 0.0256 µM | 60% | –
COc1c(C)cc(C(C)C)c(/C=C/C(O)CC(O)CC(=O)O)c1-c1ccc(F)cc1 (centres unmarked) | 0.0166 µM | 65% | –
COc1cc(C(C)C)c(/C=C/C(O)CC(O)CC(=O)O)c(-c2ccc(F)cc2)c1OC (centres unmarked) | 0.00543 µM | 71% | –
COCCOCCOc1c(OC)cc(C(C)C)c(/C=C/C(O)CC(O)CC(=O)O)c1-c1ccc(F)cc1 (centres unmarked) | 0.00943 µM | 69% | –
COc1c(Cl)cc(C(C)C)c(/C=C/C(O)CC(O)CC(=O)O)c1-c1ccc(F)cc1 (centres unmarked) | 0.0187 µM | 71% | –
COc1c(OCCO)cc(C(C)C)c(/C=C/C(O)CC(O)CC(=O)O)c1-c1ccc(F)cc1 (centres unmarked) | 0.0204 µM | 61% | –
